# Publication PMC3827942, “A novel type of N-acetylglutamate synthase is involved in the first step of arginine biosynthesis in Corynebacterium glutamicum” (BMC Genomics, 2013)
# How the values were obtained:
# [1] = biological target: T1, ArgA from E. coli (Escherichia coli, UniProt P0A6C5); assay: DTNB assay of CoA release at […] nm, crude extract; type: biochemical; settings: 500 mM L-glutamate, 0.2 mM acetyl-CoA, 0.2 mM DTNB, 100 mM Tris-HCl pH 7.5, 25 C; wild-type C. glutamicum background with own NAGS activity
# T1 construct: structural gene overexpressed from pZ8-1 in wild-type C. glutamicum ATCC 13032; crude extract
# T1 sequence (P0A6C5 1-443): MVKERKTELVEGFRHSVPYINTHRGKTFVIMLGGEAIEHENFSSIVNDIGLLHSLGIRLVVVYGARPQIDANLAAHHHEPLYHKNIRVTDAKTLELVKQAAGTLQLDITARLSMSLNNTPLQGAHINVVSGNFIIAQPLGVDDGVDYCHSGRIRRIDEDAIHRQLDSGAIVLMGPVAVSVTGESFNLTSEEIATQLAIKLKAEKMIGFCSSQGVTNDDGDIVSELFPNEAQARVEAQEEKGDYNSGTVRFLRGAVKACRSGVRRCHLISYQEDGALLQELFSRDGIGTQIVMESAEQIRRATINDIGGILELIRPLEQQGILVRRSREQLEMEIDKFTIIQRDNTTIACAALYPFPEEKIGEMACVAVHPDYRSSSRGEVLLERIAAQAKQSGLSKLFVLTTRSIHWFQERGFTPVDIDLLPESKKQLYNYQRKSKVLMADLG
# [2] = biological target: T2, Cg3035 (Corynebacterium glutamicum, UniProt Q8NM40); assay: DTNB assay of CoA release at […] nm, crude extract; type: biochemical; settings: 500 mM L-glutamate, 0.2 mM acetyl-CoA, 0.2 mM DTNB, 100 mM Tris-HCl pH 7.5, 25 C; overexpressing strain against deletion mutant; no acetyl-CoA consumption without glutamate
# T2 construct: gene Cgl2740; complete ORF, untagged as far as told, overexpressed from pZ8-1 in C. glutamicum ATCC 13032 and its cg3035 deletion mutant; crude extract
# T2 sequence (Q8NM40 entry or part of it): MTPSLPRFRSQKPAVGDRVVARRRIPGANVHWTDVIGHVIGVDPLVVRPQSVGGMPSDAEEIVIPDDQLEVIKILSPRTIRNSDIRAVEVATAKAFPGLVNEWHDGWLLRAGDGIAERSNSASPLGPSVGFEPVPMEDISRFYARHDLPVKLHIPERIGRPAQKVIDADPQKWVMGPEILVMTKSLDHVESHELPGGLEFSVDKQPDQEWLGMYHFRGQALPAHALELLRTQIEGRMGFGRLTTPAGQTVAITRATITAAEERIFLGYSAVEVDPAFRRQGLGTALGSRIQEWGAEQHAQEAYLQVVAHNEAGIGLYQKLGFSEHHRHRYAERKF
smiles,measurement,setting,value
CC(=O)SCCNC(=O)CCNC(=O)[C@H](O)C(C)(C)COP(=O)(O)OP(=O)(O)OC[C@H]1O[C@@H](n2cnc3c(N)ncnc32)[C@H](O)[C@@H]1OP(=O)(O)O [acetyl-CoA],"DTNB assay of CoA release at 412 nm, crude extract",[1],ArgA from E. coli was found to confer additional NAGS activity
same,"DTNB assay of CoA release at 412 nm, crude extract",[2],the function of Cg3035 to use acetyl-CoA for acetylation of glutamate was demonstrated
